Among the data in ChEMBL document CHEMBL3886653, “Cytomegalovirus inhibitor compounds” (2016) are IC50 values, retold here.

Usually IC50 stands for the point on the concentration scale where inhibition reaches its midpoint.

One assay addresses T1, DNA polymerase catalytic subunit (Human cytomegalovirus (strain AD169) (HHV-5) (Human herpesvirus 5), UniProt P08546).
T1 sequence (P08546 whole entry): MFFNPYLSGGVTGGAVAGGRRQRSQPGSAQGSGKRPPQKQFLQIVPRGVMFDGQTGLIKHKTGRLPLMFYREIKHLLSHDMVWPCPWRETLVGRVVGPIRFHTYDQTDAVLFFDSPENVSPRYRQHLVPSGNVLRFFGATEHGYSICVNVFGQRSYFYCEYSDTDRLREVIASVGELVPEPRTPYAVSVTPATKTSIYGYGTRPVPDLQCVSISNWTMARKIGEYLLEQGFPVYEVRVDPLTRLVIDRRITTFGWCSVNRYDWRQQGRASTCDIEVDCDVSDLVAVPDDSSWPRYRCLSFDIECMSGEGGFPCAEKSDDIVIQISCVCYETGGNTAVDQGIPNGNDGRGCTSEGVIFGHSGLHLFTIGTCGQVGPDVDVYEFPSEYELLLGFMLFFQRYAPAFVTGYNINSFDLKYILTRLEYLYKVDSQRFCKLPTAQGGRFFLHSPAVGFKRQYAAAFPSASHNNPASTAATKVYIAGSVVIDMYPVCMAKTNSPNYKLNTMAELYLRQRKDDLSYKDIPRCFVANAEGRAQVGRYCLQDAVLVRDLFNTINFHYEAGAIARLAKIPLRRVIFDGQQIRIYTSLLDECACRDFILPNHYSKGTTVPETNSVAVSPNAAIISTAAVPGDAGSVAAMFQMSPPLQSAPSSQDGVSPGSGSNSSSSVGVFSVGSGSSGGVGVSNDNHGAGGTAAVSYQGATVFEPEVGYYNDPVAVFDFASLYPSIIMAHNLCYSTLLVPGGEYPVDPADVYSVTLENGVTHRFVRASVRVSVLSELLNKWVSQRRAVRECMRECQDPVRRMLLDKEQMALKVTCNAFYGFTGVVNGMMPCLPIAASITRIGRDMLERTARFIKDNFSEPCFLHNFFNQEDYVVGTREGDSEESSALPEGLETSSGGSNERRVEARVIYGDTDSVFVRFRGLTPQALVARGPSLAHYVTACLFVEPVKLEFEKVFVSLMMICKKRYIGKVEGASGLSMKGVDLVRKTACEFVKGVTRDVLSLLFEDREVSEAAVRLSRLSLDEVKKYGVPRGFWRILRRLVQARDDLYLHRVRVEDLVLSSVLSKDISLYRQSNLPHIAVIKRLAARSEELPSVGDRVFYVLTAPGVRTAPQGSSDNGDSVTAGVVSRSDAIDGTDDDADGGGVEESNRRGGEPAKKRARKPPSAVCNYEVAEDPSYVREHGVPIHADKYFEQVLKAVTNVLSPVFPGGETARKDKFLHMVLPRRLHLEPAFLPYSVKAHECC
Nature of the assay: HCMV Polymerase LANCE TR-FRET Assay: The assay conditions are the following: 10 mM HEPES pH 7.5, 25 mM KCl, 7.5 mM NaCl, 5 mM MgCl2, 0.2 mg BSA/mL, 1 mM TCEP, 1.5% glycerol, 5% DMSO, 235 nM dATP, 350 nM dCTP, 350 nM dGTP, 235 nM dTTP, 12 nM biotin-16-dUTP, 23.5 nM Dig-primer/template, 2 nM GST-UL54. The assay volume is 10 μL. Each reagent is added as follow: 4 μL a+3 μL b+3 μL c; a: compound diluted in compound dilution buffer to obtain 12.5% DMSO; b: enzyme (GST-UL54) in 10 mM Hepes pH 7.5, 25 mM KCl, 5 mM MgCl2, 25 mM NaCl, 5% Glycerol, 0.67 mg BSA/mL, 1 mM TCEP w/o DMSO (2 nM GST-UL54 is present in the assay); c: substrate in 10 mM HEPES pH 7.5, 25 mM KCl, 5 mM MgCl2, 1 mM TCEP, 783 nM dATP, 1166 nM dCTP, 1166 nM dGTP, 783 nM dTTP, 40 nM biotin-16-dUTP, 78 nM Dig-primer (5'-/Dig/AGC TCG TTT AGT GAA CC-3')/template (5'-GAGGTCAAAACAGCGTGGATGGCGTCTCCAGGCGATCTGACGGTTCACTAAACGAGCT-3') w/o DMSO. The primer and template are annealed in 10 mM Tris-HCl pH 7.5, 50 mM NaCl at a respective concentration of 50 μM. They are incubated at 95 °C. for 5 min in a dry batch block. The block is removed from the dry bath and allowed to cool to RT. Aliquots are made and stored at −20 °C. To perform the assay, 3 μL of the enzyme solution is added to columns 2-12 and 14-24. The enzyme is substituted by the blank solution (b solution without enzyme) for columns 1 and 13 (blanks). The plate is centrifuged at 200×g for 30 sec. 3 μL of substrate solution is added to each well. The plate is centrifuged at 200×g for 30 sec. Plates are incubated at 37 °C. for 30 min. 5 μL of conjugate solution is added (25 mM Hepes pH 7.5, 0.1 M NaCl, 0.25% Tween-20, 1 mg/mL BSA, 12 mM EDTA, 24 nM Sreptavidin-APC, 342 ng/mL Anti-Dig-Europium). The plates are incubated at RT for at least 120 min. The signal is read on the Envision plate reader (Perkin-Elmer) or equivalent. (TR-FRET usually uses a lanthanide donor and a delayed reading to cut background.)
Consider `Cn1cc(-c2cnc3c(c2)cc(C(=O)NCc2ccc(Cl)cc2)c(=O)n3CC(=O)N2CC(F)(CF)C2)cn1`, for which the IC50 came out at 59 nM. For the compound `CC1(C)CN(C(=O)Cn2c(=O)c(C(=O)NCc3ccc(Cl)cc3)cc3c(-c4cnc(N)nc4)ccnc32)C1`, the IC50 came out at 71 nM.

For the compound `Cn1cnc(-c2cnc3c(c2)cc(C(=O)NCc2ccc(Cl)cc2)c(=O)n3CC(=O)N2CC(C)(F)C2)c1`, the IC50 came out at 120 nM.

`CC1(C)CN(C(=O)Cn2c(=O)c(C(=O)NCc3ccc(Cl)cc3)cc3c(CCN4CCC4)ccnc32)C1`: the IC50 was 280 nM. The same measure, in the same setting: in the case of `Cn1cc(-c2cc3cc(C(=O)NCc4ccc(Cl)cc4)c(=O)n(CC(=O)N4CC(C)(O)C4)c3nc2N)cn1` it was 110 nM; in that of `Cc1nc(-c2cnc3c(c2)cc(C(=O)NCc2ccc(Cl)cc2)c(=O)n3CC(=O)N2CC(C)(C)C2)cn1C`, 130 nM; in that of `Cn1nccc1Cc1cnc2c(c1)cc(C(=O)NCc1ccc(Cl)cc1)c(=O)n2CC(=O)N1CC(C)(C)C1`, 65 nM.

As for `NCC1CCN(C(=O)Cn2c(=O)c(C(=O)NCc3ccc(Cl)cc3)cc3cccnc32)C1` (centres undefined), the IC50 is 5600 nM. On to `CC1(C)CN(C(=O)Cn2c(=O)c(C(=O)NCc3ccc(Cl)cc3)cc3c(OC[C@@H]4CCC(=O)N4)ccnc32)C1`, for which the IC50 amounted to 62 nM. Turning to `Cn1cnc(-c2cc3cc(C(=O)NCc4ccc(Cl)cc4)c(=O)n(CC(=O)N4CC(C)(F)C4)c3nc2N)c1`, the half-inhibitory concentration (IC50) amounted to 77 nM.

As to `Cn1cc(-c2cnc3c(cc(C(=O)NCc4ccc(Cl)cc4)c(=O)n3CC(=O)N3CC(C)(C)C3)c2N2CC(O)C2)cn1`, the IC50 was determined as 180 nM.

Consider `Cc1noc(C2CCN(C(=O)Cn3c(=O)c(C(=O)NCc4ccc(Cl)cc4)cc4cccnc43)C2)n1` (centres undefined), for which the IC50 was found to be 10000 nM. As to `COc1c(-c2cnn(C)c2)cnc2c1cc(C(=O)NCc1ccc(Cl)cc1)c(=O)n2CC(=O)N1CCC(CO)C1` (centres undefined), the IC50 was 140 nM.

Turning to `CC(C)c1ccnc2c1cc(C(=O)NCc1ccc(Cl)cc1)c(=O)n2CC(=O)N1CC(C)(C)C1`, the IC50 is 200 nM. As to `CC(=O)NC1CCN(c2cnc3c(c2)cc(C(=O)NCc2ccc(Cl)cc2)c(=O)n3CC(=O)N2CC(C)(C)C2)C1` (centres undefined), the IC50 was 190 nM. For `COc1c(-c2sc(C)nc2C)cnc2c1cc(C(=O)NCc1ccc(Cl)cc1)c(=O)n2CC(=O)N1CC(C)(C)C1`, the IC50 worked out at 1200 nM. On to `O=C(NCc1ccc(Cl)cc1)c1cc2cccnc2n(CC(=O)N2CC3(CC3)C2)c1=O`, for which the IC50 amounted to 280 nM.

As for `COc1cc(CNC(=O)c2cc3cc(-c4cn(C)cn4)cnc3n(CC(=O)N3CC(C)(F)C3)c2=O)ccc1Cl`, the IC50 turned out to be 400 nM. Still for that read-out and setting: in the case of `Cc1cc(Nc2cnc3c(c2)cc(C(=O)NCc2ccc(Cl)cc2)c(=O)n3CC(=O)N2CC(C)(C)C2)n(C)n1` it was 180 nM; in that of `CC1(F)CN(C(=O)Cn2c(=O)c(C(=O)NCc3ccc(C#N)cc3)cc3cc(-c4c[nH]cn4)cnc32)C1`, 320 nM; in that of `CN(CC(C)(C)CO)C(=O)Cn1c(=O)c(C(=O)NCc2ccc(Cl)cc2)cc2ccc(-c3cn[nH]c3)nc21`, 1000 nM.

As to `CC1(C)CN(C(=O)Cn2c(=O)c(C(=O)NCc3ccc(Cl)cc3)cc3cc(C(=O)NCc4cnccn4)cnc32)C1`, the IC50 amounted to 65 nM.

Turning to `CN(CC(=O)O)c1ccnc2c1cc(C(=O)NCc1ccc(Cl)cc1)c(=O)n2CC(=O)N1CC(C)(C)C1`, the IC50 is 50 nM. With `CC1CN(C(=O)Cn2c(=O)c(C(=O)NCc3ccc(Cl)cc3)cc3c(-c4cnc(N)nc4)c(-c4cnn(C)c4)cnc32)C1`, the IC50 turned out to be 120 nM. On the same count and under the same terms, in the case of `CNc1ccc2cc(C(=O)NCc3ccc(Cl)cc3)c(=O)n(CC(=O)N3CC(C)(O)C3)c2n1` it was 120 nM; in that of `CN(CC(C)(C)CO)C(=O)Cn1c(=O)c(C(=O)NCc2ccc(Cl)cc2)cc2ccc(NC3CC3)nc21`, 970 nM.

On to `NC(=O)[C@@H]1C[C@H](F)CN1C(=O)CCn1c(=O)c(C(=O)NCc2ccc(Cl)cc2)cc2cccnc21`, for which the IC50 is 210 nM.

Consider `CCn1cc(-c2c(O)cnc3c2cc(C(=O)NCc2ccc(Cl)cc2)c(=O)n3CC(=O)N2CC(C)(C)C2)cn1`, for which the IC50 was found to be 160 nM. Same read-out and setting: the value for `CC1(C)CN(C(=O)Cn2c(=O)c(C(=O)NCc3ccc(Cl)cc3)cc3cc(CN4CCNC(C(F)(F)F)C4)cnc32)C1` (centres undefined) was 74 nM.

As to `CS(=O)(=O)C1CN(C(=O)Cn2c(=O)c(C(=O)NCc3ccc(Cl)cc3)cc3cccnc32)C1`, the IC50 came to 17000 nM. Still for that read-out and setting: the value for `CC1CN(C(=O)Cn2c(=O)c(C(=O)NCc3ccc(Cl)cc3)cc3cc(OCC4(C#N)CC4)cnc32)C1` was 170 nM. Turning to `COc1cc(N)nc2c1cc(C(=O)NCc1ccc(Cl)cc1)c(=O)n2CC(=O)N(C)CC1(CO)COC1`, the IC50 was determined as 22 nM. Same read-out and setting: in the case of `CC1(C)CN(C(=O)Cn2c(=O)c(C(=O)NCc3ccc(Cl)cc3)cc3cc(-c4nn[nH]n4)cnc32)C1` it was 30 nM; in that of `COCCNc1ccnc2c1cc(C(=O)NCc1ccc(Cl)cc1)c(=O)n2CC(=O)N1CC(C)(C)C1`, 200 nM; in that of `CC1(C)CN(C(=O)Cn2c(=O)c(C(=O)NCc3ccc(Cl)cc3)cc3c(Oc4cccnc4)ccnc32)C1`, 280 nM.

On to `CN(C(=O)Cn1c(=O)c(C(=O)NCc2ccc(Cl)cc2)cc2cccnc21)C1CC(O)C1` (centres undefined), for which the IC50 was found to be 220 nM.

A further assay deals with T1, DNA polymerase catalytic subunit. Nature of the assay: HCMV Polymerase Scintillation Proximity Assay: The assay conditions are the following: 10 mM HEPES pH 7.5, 25 mM KCl, 7.5 mM NaCl, 5 mM MgCl2, 0.2 mg BSA/mL, 1 mM TCEP, 1.5% glycerol, 2 μM dTTP, 90 nM 3H-dTTP (minor variations in concentration are possible due to specific activity of stock), 26 nM Poly(dA)/190 nM BioTEG-dT19; 5% DMSO. The assay volume is 30 μL. Each reagent is added at a 3× conc.: 10 μL a+10 μL b+10 μL c; a: compound diluted in 10 mM Hepes pH 7.5, 25 mM KCl, 5 mM MgCl2, 1 mM TCEP with 15% DMSO; b: enzyme (GST-UL54) in 10 mM Hepes pH 7.5, 25 mM KCl, 5 mM MgCl2, 22.5 mM NaCl, 4.5% Glycerol, 0.6 mg BSA/mL, 1 mM TCEP w/o DMSO (1 nM GST-UL54 is present in the assay); c: substrate in 10 mM Hepes pH 7.5, 25 mM KCl, 5 mM MgCl2, 1 mM TCEP, 6 μM dTTP, 270 nM 3H-dTTP, 78 nM Poly(dA)/570 nM BioTEG-dT19 w/o DMSO. To perform the assay, 10 μL enzyme solution is added to columns 2-12 and 14-24. The enzyme is substituted by the blank solution (b solution without enzyme) for columns 1 and 13 (blanks). The plate is centrifuged at 200×g for 30 sec. 10 μL of substrate solution is added to each well. The plate is centrifuged at 200×g for 30 sec. The plates are incubated at 37 °C. for 40 min. To stop the reaction, 25 μL of SPA beads (5 mg/mL in 0.5 M EDTA) are added and mixed by pipetting up and down. The plates are incubated at RT for at least 15 min. 35 μL of 5 M CsCl is added to the bottom of each well. TopSeal is applied to the plate and the plate is incubated at RT for at least 90 min prior to reading. The signal is read on TopCount plate reader (Perkin-Elmer) or equivalent.
Take `CC1(C)CN(C(=O)Cn2c(=O)c(C(=O)NCc3ccc(Cl)c(Cl)c3)cc3cccnc32)C1`: the IC50 was 14000 nM. As to `CC1(C)CN(C(=O)Cn2c(=O)c(C(=O)NCc3ccc(Cl)c(C(F)(F)F)c3)cc3cccnc32)C1`, the IC50 was 38000 nM.

In the case of `O=C(NCc1ccc(Cl)cc1)c1cc2cccnc2n(CC(=O)N2CCCOCC2)c1=O`, the IC50 was determined as 16000 nM.
